In ChEMBL document CHEMBL5649169 (ChemMedChem, 2018):

Key:
[1] = target: Bone morphogenetic protein receptor type-1A (Homo sapiens) (UniProt P36894); also: assay method not described here
[2] = target: Cyclin-dependent kinase 2 (Homo sapiens) (UniProt P24941); also: assay method not described here
[3] = target: Dolichyl-diphosphooligosaccharide--protein glycosyltransferase 48 kDa subunit (Homo sapiens) (UniProt P39656); also: assay method not described here
[4] = target: Nucleolar RNA helicase 2 (Homo sapiens) (UniProt Q9NR30); also: assay method not described here
[5] = target: Small ribosomal subunit protein RACK1 (Homo sapiens) (UniProt P63244); also: assay method not described here
[6] = target: Protein CIP2A (Homo sapiens) (UniProt Q8TCG1); also: assay method not described here
[7] = target: Large subunit GTPase 1 homolog (Homo sapiens) (UniProt Q9H089); also: assay method not described here
[8] = target: MAP/microtubule affinity-regulating kinase 4 (Homo sapiens) (UniProt Q96L34); also: assay method not described here
[9] = target: Nucleosome assembly protein 1-like 4 (Homo sapiens) (UniProt Q99733); also: assay method not described here
[10] = target: Protein prenyltransferase alpha subunit repeat-containing protein 1 (Homo sapiens) (UniProt Q7Z6K3); also: assay method not described here
Protein prenyltransferase alpha subunit repeat-containing protein 1 (Homo sapiens), sequence (Q7Z6K3 whole entry): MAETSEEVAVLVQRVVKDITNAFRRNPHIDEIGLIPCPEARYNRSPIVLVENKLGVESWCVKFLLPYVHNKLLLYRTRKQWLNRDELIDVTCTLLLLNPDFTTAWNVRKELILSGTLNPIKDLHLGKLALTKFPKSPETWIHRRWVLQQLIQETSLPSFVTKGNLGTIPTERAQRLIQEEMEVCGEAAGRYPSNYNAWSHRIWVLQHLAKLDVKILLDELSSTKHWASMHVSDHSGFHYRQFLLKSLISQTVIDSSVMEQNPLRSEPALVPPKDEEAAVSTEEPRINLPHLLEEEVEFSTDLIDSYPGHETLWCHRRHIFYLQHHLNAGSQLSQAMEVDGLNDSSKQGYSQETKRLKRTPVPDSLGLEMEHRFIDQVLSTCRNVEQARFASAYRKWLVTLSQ

[11] = target: Man(5)GlcNAc(2)-PP-dolichol translocation protein RFT1 (Homo sapiens) (UniProt Q96AA3); also: assay method not described here
[12] = target: Ubiquitin carboxyl-terminal hydrolase 39 (Homo sapiens) (UniProt Q53GS9); also: assay method not described here
[13] = target: Acetyl-CoA carboxylase 2 (Homo sapiens) (UniProt O00763); also: assay method not described here
[14] = target: Arfaptin-2 (Homo sapiens) (UniProt P53365); also: assay method not described here
[15] = target: Serine hydrolase BPHL (Homo sapiens) (UniProt Q86WA6); also: assay method not described here
[16] = target: Cleavage and polyadenylation specificity factor subunit 1 (Homo sapiens) (UniProt Q10570); also: assay method not described here
Cleavage and polyadenylation specificity factor subunit 1 (Homo sapiens), sequence (Q10570 whole entry): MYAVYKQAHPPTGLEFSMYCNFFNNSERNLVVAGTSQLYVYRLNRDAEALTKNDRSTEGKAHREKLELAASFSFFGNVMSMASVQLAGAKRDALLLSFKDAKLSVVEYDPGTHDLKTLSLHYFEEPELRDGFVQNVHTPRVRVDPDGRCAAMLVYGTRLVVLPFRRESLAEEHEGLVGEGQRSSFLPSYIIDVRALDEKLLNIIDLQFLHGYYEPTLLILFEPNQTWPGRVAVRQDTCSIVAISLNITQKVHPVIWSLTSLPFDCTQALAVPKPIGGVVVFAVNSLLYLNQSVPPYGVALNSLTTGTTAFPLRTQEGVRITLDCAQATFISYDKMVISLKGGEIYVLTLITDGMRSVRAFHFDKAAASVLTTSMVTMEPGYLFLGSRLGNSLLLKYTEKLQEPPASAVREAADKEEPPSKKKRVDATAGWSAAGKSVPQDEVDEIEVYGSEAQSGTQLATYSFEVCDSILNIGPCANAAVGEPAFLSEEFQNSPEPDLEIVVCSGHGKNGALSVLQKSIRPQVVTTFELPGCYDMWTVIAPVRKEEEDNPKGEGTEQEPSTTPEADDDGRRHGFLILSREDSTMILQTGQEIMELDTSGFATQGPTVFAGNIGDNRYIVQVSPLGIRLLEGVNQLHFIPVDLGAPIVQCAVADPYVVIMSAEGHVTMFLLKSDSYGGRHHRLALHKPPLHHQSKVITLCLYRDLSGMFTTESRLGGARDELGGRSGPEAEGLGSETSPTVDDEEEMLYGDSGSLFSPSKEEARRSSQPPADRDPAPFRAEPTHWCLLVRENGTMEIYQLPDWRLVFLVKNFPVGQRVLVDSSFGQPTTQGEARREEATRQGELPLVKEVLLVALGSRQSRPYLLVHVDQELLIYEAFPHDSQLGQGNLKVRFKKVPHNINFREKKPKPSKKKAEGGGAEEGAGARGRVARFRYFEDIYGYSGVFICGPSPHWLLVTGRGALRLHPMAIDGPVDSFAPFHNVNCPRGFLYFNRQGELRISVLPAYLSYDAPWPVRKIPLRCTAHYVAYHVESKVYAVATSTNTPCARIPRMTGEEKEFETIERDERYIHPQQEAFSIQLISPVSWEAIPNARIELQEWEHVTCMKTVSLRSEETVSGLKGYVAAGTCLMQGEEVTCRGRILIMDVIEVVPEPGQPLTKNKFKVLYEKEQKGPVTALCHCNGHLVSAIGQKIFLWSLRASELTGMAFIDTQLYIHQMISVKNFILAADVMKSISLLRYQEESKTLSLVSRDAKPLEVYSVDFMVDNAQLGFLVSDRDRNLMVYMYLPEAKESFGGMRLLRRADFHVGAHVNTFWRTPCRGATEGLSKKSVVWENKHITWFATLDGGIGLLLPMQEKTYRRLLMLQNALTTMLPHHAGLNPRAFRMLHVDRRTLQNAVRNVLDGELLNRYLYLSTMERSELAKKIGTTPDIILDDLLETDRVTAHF

[17] = target: Rootletin (Homo sapiens) (UniProt Q5TZA2); also: assay method not described here
[18] = target: Centrosome and spindle pole-associated protein 1 (Homo sapiens) (UniProt Q1MSJ5); also: assay method not described here
[19] = target: Cytoplasmic FMR1-interacting protein 2 (Homo sapiens) (UniProt Q96F07); also: assay method not described here
[20] = target: Desmoglein-1 (Homo sapiens) (UniProt Q02413); also: assay method not described here
[21] = target: Echinoderm microtubule-associated protein-like 4 (Homo sapiens) (UniProt Q9HC35); also: assay method not described here
[22] = species on record: Homo sapiens; also: assay method not described here
[23] = target: Cell growth-regulating nucleolar protein (Homo sapiens) (UniProt Q9NX58); also: assay method not described here
[24] = target: RNA-binding protein Musashi homolog 2 (Homo sapiens) (UniProt Q96DH6); also: assay method not described here
[25] = target: Origin recognition complex subunit 3 (Homo sapiens) (UniProt Q9UBD5); also: assay method not described here
[26] = target: Protein kinase C and casein kinase substrate in neurons protein 2 (Homo sapiens) (UniProt Q9UNF0); also: assay method not described here
[27] = target: PAS domain-containing serine/threonine-protein kinase (Homo sapiens) (UniProt Q96RG2); also: assay method not described here
PAS domain-containing serine/threonine-protein kinase (Homo sapiens), sequence (Q96RG2 whole entry, the tested form may be a part): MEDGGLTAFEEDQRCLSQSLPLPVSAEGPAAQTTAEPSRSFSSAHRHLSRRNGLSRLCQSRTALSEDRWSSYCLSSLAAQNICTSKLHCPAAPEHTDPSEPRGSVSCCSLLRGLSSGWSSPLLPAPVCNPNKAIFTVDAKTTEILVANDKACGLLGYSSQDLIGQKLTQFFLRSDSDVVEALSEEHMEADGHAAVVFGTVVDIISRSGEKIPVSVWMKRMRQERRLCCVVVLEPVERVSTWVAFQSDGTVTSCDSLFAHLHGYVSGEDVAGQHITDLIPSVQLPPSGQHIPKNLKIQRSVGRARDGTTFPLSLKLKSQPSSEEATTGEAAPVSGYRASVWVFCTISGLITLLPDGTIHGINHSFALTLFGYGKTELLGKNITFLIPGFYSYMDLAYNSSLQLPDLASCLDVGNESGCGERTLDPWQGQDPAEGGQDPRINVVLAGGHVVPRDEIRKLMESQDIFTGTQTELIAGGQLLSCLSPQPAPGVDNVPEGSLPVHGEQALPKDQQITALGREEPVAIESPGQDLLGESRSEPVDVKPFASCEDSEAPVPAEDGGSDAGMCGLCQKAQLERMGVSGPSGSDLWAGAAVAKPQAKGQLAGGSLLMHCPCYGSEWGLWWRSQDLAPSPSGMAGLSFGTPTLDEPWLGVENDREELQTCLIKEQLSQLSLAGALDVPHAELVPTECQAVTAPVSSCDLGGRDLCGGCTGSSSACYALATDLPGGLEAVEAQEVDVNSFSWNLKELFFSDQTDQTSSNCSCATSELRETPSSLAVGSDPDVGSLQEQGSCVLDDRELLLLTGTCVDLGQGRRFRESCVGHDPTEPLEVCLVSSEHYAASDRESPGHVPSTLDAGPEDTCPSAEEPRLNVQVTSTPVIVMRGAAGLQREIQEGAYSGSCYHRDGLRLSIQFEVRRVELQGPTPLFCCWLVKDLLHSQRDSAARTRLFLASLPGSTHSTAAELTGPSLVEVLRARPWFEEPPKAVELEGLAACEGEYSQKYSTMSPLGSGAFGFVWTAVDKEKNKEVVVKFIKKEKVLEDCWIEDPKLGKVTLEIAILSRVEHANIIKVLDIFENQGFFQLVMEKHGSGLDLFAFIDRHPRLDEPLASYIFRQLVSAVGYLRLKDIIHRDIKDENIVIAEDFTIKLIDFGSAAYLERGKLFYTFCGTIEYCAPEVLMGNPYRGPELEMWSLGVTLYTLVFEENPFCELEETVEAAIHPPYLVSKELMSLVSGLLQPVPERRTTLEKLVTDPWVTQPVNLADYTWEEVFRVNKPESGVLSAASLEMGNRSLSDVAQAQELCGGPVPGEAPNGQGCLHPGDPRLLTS

[28] = target: Programmed cell death protein 2-like (Homo sapiens) (UniProt Q9BRP1); also: assay method not described here
[29] = target: PHD finger protein 6 (Homo sapiens) (UniProt Q8IWS0); also: assay method not described here
[30] = target: DNA polymerase delta subunit 3 (Homo sapiens) (UniProt Q15054); also: assay method not described here
[31] = species on record: Homo sapiens; remark: listed apart in the source; also: assay method not described here
[32] = target: Parathymosin (Homo sapiens) (UniProt P20962); also: assay method not described here
[33] = target: SWI/SNF-related matrix-associated actin-dependent regulator of chromatin subfamily A member 1 (Homo sapiens) (UniProt P28370); also: assay method not described here
[34] = target: Mitochondrial import inner membrane translocase subunit Tim10 (Homo sapiens) (UniProt P62072); also: assay method not described here
[35] = target: Ubiquitin carboxyl-terminal hydrolase 9X (Homo sapiens) (UniProt Q93008); also: assay method not described here
[36] = species on record: Homo sapiens; remark: listed apart in the source; also: assay method not described here
[37] = target: Vacuolar protein sorting-associated protein 51 homolog (Homo sapiens) (UniProt Q9UID3); also: assay method not described here
Vacuolar protein sorting-associated protein 51 homolog (Homo sapiens), sequence (Q9UID3 whole entry): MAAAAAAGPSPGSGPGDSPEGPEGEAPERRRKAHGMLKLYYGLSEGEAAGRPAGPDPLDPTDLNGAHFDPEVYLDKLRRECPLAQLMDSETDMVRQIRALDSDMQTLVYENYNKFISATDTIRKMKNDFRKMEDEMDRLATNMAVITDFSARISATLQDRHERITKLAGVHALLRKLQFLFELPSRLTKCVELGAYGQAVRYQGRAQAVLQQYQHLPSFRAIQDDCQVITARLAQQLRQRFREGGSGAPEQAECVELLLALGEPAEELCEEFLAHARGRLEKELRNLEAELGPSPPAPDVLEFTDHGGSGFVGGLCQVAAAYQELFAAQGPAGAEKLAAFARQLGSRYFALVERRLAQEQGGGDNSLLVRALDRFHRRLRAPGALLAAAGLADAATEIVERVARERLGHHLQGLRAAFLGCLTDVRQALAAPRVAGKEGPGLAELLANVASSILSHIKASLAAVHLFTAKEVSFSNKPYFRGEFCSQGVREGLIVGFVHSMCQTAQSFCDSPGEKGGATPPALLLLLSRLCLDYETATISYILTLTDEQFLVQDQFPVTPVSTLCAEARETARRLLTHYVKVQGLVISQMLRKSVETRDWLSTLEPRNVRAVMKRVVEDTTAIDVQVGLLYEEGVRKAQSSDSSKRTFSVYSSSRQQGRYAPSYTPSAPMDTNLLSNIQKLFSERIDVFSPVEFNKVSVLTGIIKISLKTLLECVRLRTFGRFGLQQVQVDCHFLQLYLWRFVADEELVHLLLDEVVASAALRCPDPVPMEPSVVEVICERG

[38] = target: Large ribosomal subunit protein bL9m (Homo sapiens) (UniProt Q9BYD2); also: assay method not described here
[39] = target: Ephrin type-A receptor 2 (Homo sapiens, UniProt P29317); assay: Binding affinity to recombinant human EPHA2 (D596 to G900 residues) expressed in insect cells incubated for 30 mins by MST assay; design: species or system Insect cell
Ephrin type-A receptor 2, sequence (P29317 whole entry, the tested form may be a part): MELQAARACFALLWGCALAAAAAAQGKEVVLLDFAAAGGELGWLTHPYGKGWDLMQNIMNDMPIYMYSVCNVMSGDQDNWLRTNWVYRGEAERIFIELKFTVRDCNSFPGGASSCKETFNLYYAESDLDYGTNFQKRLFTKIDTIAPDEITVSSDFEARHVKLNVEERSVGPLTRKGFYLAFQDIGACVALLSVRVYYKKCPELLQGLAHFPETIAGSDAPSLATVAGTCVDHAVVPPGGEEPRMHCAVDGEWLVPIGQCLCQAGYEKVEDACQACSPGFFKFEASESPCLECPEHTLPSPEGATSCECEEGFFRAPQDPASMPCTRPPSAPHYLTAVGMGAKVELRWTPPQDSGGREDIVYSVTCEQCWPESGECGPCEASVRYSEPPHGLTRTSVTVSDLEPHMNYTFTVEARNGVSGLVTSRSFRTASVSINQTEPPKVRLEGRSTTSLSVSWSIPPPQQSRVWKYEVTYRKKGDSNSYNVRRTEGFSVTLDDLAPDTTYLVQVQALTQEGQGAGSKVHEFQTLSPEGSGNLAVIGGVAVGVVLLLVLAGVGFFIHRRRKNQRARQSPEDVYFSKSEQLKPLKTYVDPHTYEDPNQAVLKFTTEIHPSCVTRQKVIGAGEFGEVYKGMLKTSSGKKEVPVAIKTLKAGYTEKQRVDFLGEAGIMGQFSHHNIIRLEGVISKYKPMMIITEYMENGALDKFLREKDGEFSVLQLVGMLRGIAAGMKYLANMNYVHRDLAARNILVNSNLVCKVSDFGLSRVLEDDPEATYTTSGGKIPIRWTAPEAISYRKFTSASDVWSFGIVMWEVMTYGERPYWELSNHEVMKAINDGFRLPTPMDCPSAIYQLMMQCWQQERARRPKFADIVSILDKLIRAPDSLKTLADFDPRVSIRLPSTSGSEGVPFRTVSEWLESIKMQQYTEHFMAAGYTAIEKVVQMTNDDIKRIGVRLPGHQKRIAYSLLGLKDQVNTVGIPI

[40] = target: Conserved oligomeric Golgi complex subunit 6 (Homo sapiens) (UniProt Q9Y2V7); also: assay method not described here
[41] = target: Hypoxia up-regulated protein 1 (Homo sapiens) (UniProt Q9Y4L1); also: assay method not described here
[42] = target: La-related protein 1 (Homo sapiens) (UniProt Q6PKG0); also: assay method not described here
[43] = target: DNA replication licensing factor MCM3 (Homo sapiens) (UniProt P25205); also: assay method not described here
[44] = target: N-acetylneuraminate-9-phosphate synthase (Homo sapiens) (UniProt Q9NR45); also: assay method not described here
[45] = target: NADH dehydrogenase [ubiquinone] 1 alpha subcomplex subunit 13 (Homo sapiens) (UniProt Q9P0J0); also: assay method not described here
NADH dehydrogenase [ubiquinone] 1 alpha subcomplex subunit 13 (Homo sapiens), sequence (Q9P0J0 whole entry, one chain of several): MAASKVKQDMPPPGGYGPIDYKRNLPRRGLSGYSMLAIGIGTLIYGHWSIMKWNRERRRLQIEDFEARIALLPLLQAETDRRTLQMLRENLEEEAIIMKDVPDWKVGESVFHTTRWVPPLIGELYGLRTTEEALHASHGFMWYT

[46] = target: 14-3-3 protein beta/alpha (Homo sapiens) (UniProt P31946); also: assay method not described here

Q: Which ED50 [1] does the source give for Cc1ccc(C(=O)Nc2cccc(C(F)(F)F)c2)cc1Nc1nc(-c2cccnc2)nc2c1cnn2C here?
A: 0.99 µM

Q: And the ED50 [2]?
A: 0.0475 µM

Q: What about the ED50 [3] of the same compound?
A: 0.169 µM

Q: What about the ED50 [4] of the same compound?
A: 0.384 µM

Q: And the ED50 [5]?
A: 2.87 µM

Q: What about the ED50 [6] of the same compound?
A: 12.6 µM

Q: What about the ED50 [7] of the same compound?
A: 0.000521 µM

Q: And the ED50 [8]?
A: 0.0986 µM

Q: And the ED50 [9]?
A: 9.2 µM

Q: And the ED50 [10]?
A: 0.0155 µM

Q: And the ED50 [11]?
A: 1.13 µM

Q: What about the ED50 [12] of the same compound?
A: 95.8 µM

Q: What about the ED50 [13] of the same compound?
A: 0.175 µM

Q: What about the ED50 [14] of the same compound?
A: 211 µM

Q: And the ED50 [15]?
A: 13.2 µM

Q: And the ED50 [16]?
A: 0.0118 µM

Q: What about the ED50 [17] of the same compound?
A: 0.115 µM

Q: What about the ED50 [18] of the same compound?
A: 1.41 µM

Q: What about the ED50 [19] of the same compound?
A: 6.95 µM

Q: And the ED50 [20]?
A: 47.5 µM

Q: What about the ED50 [21] of the same compound?
A: 0.761 µM

Q: And the ED50 [22]?
A: 4.42 µM

Q: And the ED50 [23]?
A: 4.37 µM

Q: And the ED50 [24]?
A: 0.00124 µM

Q: What about the ED50 [25] of the same compound?
A: 22.9 µM

Q: And the ED50 [26]?
A: 0.579 µM

Q: And the ED50 [27]?
A: 14.7 µM

Q: What about the ED50 [28] of the same compound?
A: 4.49 µM

Q: What about the ED50 [29] of the same compound?
A: 2.01 µM

Q: And the ED50 [30]?
A: 0.00157 µM

Q: And the ED50 [31]?
A: 1590 µM

Q: What about the ED50 [32] of the same compound?
A: 0.0394 µM

Q: What about the ED50 [33] of the same compound?
A: 0.0141 µM

Q: What about the ED50 [34] of the same compound?
A: 0.0279 µM

Q: What about the ED50 [35] of the same compound?
A: 0.0603 µM

Q: What about the ED50 [36] of the same compound?
A: 5.28 µM

Q: And the ED50 [37]?
A: 5.2 µM

Q: And the ED50 [38]?
A: 9.58 µM

Q: What does the source list for Cc1ccc(C(=O)Nc2cccc(C(F)(F)F)c2)cc1Nc1nc(-c2cccnc2)nc2nn(C)cc12?
A: Kd [39]: 0.073 µM; ED50 [40]: 139 µM; ED50 [41]: 0.0524 µM; ED50 [42]: 1.69 µM; ED50 [43]: 0.0289 µM; ED50 [44]: 0.09 µM; ED50 [45]: 0.00585 µM; ED50 [46]: 0.0807 µM
